In patent US20100048900A1, “AGENT FOR TREATMENT OF VASCULAR LEAKS” (priority 2006, published 2010):

Columns and labels:
[1] = tested on: human endothelial cells (HUVEC cells); assay: In-vitro inhibition of the interleukin-2 (Proleukin) induced VLS: spherical deformation of HUVEC cells; type: cell-based; conditions: Proleukin in combination with 20 mM of substance, microscopic assessment after 4 to 6 days
Procedure: In-vitro examinations on the inhibition of the VLS induced by interleukin-2. Using human endothelial cells (HUVEC cells) the inhibition of the IL-2 induced VLS through ectoine and hydroxyectoine was investigated in an in-vitro system. In this context the concentrations of Proleukin® (by Chiron) were determined that lead to the spherical deformation of the HUVEC cells. The spherical deformation of HUVEC cells is considered as a sign for the triggering of the VLS, cf. Baluna et al., PNAS 3957-3962, March 1999. Same as VLS, this phenotype visible under the light microscope is based on the bonding of membrane proteins, the integrins. The cells were incubated with Proleukin solely or in combination with ectoine and hydroxyectoine. To verify the specificity of the compatible solutes also trehalose and glucose were employed additionally. After 4 to 6 days the proportion of normal and spherically deformed cells of a visual field are determined by microscopic assessment.

[2] = tested on: NK cells and T cells of healthy-blood donors; assay: Proleukin-induced interferon-γ synthesis of human lymphocytes (ELISA of supernatant); type: cell-based; conditions: 250 U Proleukin in combination with 20 mM hydroxyectoine, 48 hours, FIG. 2
Excerpt: Effects of hydroxyectoine on the Proleukin-induced interferon-γ-synthesis of human lymphocytes.
interleukin-2, IL-2, same as Proleukin leads to the activation of immune effector cells which can be determined, inter alia, by an increased interferon-γ secretion of NK cells and T-lymphocytes.
For this purpose NK cells and T cells of healthy-blood donors were isolated by means of the MACS technique (Magnetic Cell Sorting, Milteniy). The of detection of the cells expressing the surface markers CE 56, NKG2D and CD 3 was brought about by FACS analyses.
The cells without further additives have been incubated for 48 hours with 250 U Proleukin or with 250 U Proleukin in combination with 20 mM hydroxyectoine. Following this, the concentration of interferon-γ was determined in the supernatant of the cells with the aid of ELISA (triple determinations from two independent experiments).

Row | Structure (SMILES) | reduction of the Proleukin-induced VLS phenotype (spherically deformed HUVEC cells; VLS inhibition percentage, FIG. 1) [1] | inhibition of the induction of interferon-γ synthesis (concentration of interferon-γ in the supernatant) [2]
1 | CC1=N[C@H](C(=O)O)CCN1 [ectoine, (4S)-2-methyl-1,4,5,6-tetrahydropyrimidine-4-carboxylic acid] | significantly reduce the VLS phenotype | –
2 | CC1=N[C@H](C(=O)O)[C@@H](O)CN1 [hydroxyectoine, (4S,5S)-5-hydroxy-2-methyl-1,4,5,6-tetrahydropyrimidine-4-carboxylic acid] | significantly reduce the VLS phenotype | does not inhibit the induction of the interferon-γ synthesis, on the contrary slightly increased values were found
